According to patent publication US9828396B2, “Alkyne compounds for treatment of complement mediated disorders” (Achillion Pharmaceuticals, Inc., priority 2014, dated 2017):

Target: Human factor D (Homo sapiens (Human), UniProt P00746)
Assay: Human Factor D Assay
Type: biochemical
Settings: Human factor D 80 nM, substrate Z-L-Lys-SBzl, assay of Example 12
Experimental: Example 12. Human Factor D Assay
Human factor D (purified from human serum, Complement Technology, Inc.) at 80 nM final concentration is incubated with test compound at various concentrations for 5 minutes at room temperature in 50 mM Tris, 1M NaCl, pH 7.5. A synthetic substrate Z-L-Lys-SBzl and DTNB (Ellman's reagent) are added to final concentrations of 100 μM each. The increase in color is recorded at OD405 nm in a microplate in kinetic mode over 30 minutes with 30 second time points in a spectrofluorimeter. IC50 values are calculated by non-linear regression from the percentage of inhibition of complement factor D activity as a function of test compound concentration.

Human factor D, sequence (P00746 26-253): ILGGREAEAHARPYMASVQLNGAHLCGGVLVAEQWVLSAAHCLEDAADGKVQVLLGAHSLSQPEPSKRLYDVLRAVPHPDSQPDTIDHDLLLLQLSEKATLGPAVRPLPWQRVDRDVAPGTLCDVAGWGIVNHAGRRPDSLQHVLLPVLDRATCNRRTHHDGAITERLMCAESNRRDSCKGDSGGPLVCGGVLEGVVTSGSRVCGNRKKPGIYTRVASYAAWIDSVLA

Row | Structure (SMILES) | IC50 [µM]
1 | CCS(=O)(=O)NC(=O)C#Cc1ccc2c(C(C)=O)cn(CC(=O)N3C[C@H](F)C[C@H]3C(=O)NCc3cccc(Cl)c3F)c2c1 [Compound 10, (2S,4R)-1-(2-(3-acetyl-6-(3-(ethylsulfonamido)-3-oxoprop-1-ynyl)-1H-indol-1-yl)acetyl)-N-(3-chloro-2-fluorobenzyl)-4-fluoropyrrolidine-2-carboxamide] | < 1
2 | NC(=O)c1nn(CC(=O)N2[C@@H]3C[C@@H]3C[C@H]2C(=O)Nc2cccc(Br)n2)c2ccc(C#Cc3cc(F)ccn3)cc12 [Compound 65, 1-(2-((1R,3S,5R)-3-(6-bromopyridin-2-ylcarbamoyl)-2-azabicyclo[3.1.0]hexan-2-yl)-2-oxoethyl)-5-((4-fluoropyridin-2-yl)ethynyl)-1H-indazole-3-carboxamide] | < 1
3 | NC(=O)c1nn(CC(=O)N2[C@@H]3C[C@@H]3C[C@H]2C(=O)Nc2cccc(-c3ccc(F)cc3Cl)c2F)c2ccc(C#Cc3ncc(F)cn3)cc12 [Compound 64, 1-(2-((1R,3S,5R)-3-(2′-chloro-2,4′-difluorobiphenyl-3-ylcarbamoyl)-2-azabicyclo[3.1.0]hexan-2-yl)-2-oxoethyl)-5-((5-fluoropyrimidin-2-yl)ethynyl)-1H-indazole-3-carboxamide] | < 1
4 | COc1nc(C#Cc2ccc3c(c2)c(C(N)=O)nn3CC(=O)N2C[C@H](F)C[C@H]2C(=O)Nc2cccc(-c3ccccc3Cl)c2F)ncc1F [Compound 78, 1-(2-((2S,4R)-2-(2′-chloro-2-fluorobiphenyl-3-ylcarbamoyl)-4-fluoropyrrolidin-1-yl)-2-oxoethyl)-5-((5-fluoro-4-methoxypyrimidin-2-yl)ethynyl)-1H-indazole-3-carboxamide] | < 1
5 | CC(C)=C(F)CNC(=O)[C@@H]1C[C@@H](F)CN1C(=O)Cn1nc(C(N)=O)c2cc(C#Cc3ncccn3)ccc21 [Compound 45, 1-(2-((2S,4R)-4-fluoro-2-(2-fluoro-3-methylbut-2-enylcarbamoyl)pyrrolidin-1-yl)-2-oxoethyl)-5-(pyrimidin-2-ylethynyl)-1H-indazole-3-carboxamide] | < 1
6 | C#Cc1ccc2c(C(C)=O)cn(CC(=O)N3C[C@H](F)C[C@H]3C(=O)NCc3cccc(Cl)c3F)c2c1 [Compound 1, (2S,4R)-1-(2-(3-acetyl-6-ethynyl-1H-indol-1-yl)acetyl)-N-(3-chloro-2-fluorobenzyl)-4-fluoropyrrolidine-2-carboxamide] | < 1
7 | NC(=O)c1nn(CC(=O)N2C[C@H](F)C[C@H]2C(=O)Nc2cccc(Cl)n2)c2ccc(C#Cc3cccnn3)cc12 [Compound 75, 1-(2-((2S,4R)-2-(6-chloropyridin-2-ylcarbamoyl)-4-fluoropyrrolidin-1-yl)-2-oxoethyl)-5-(pyridazin-3-ylethynyl)-1H-indazole-3-carboxamide] | < 1
8 | NC(=O)c1nn(CC(=O)N2C[C@H](F)C[C@H]2C(=O)NCc2cccc(Cl)c2F)c2ccc(C#Cc3ccccn3)cc12 [Compound 23, 1-(2-((2S,4R)-2-(3-chloro-2-fluorobenzylcarbamoyl)-4-fluoropyrrolidin-1-yl)-2-oxoethyl)-5-(pyridin-2-ylethynyl)-1H-indazole-3-carboxamide] | < 1
9 | NC(=O)c1nn(CC(=O)N2C[C@H](F)C[C@H]2C(=O)Nc2cncc(-c3c(F)cccc3Cl)n2)c2ccc(C#Cc3ncc(F)cn3)cc12 [Compound 86, 1-(2-((2S,4R)-2-(6-(2-chloro-6-fluorophenyl)pyrazin-2-ylcarbamoyl)-4-fluoropyrrolidin-1-yl)-2-oxoethyl)-5-((5-fluoropyrimidin-2-yl)ethynyl)-1H-indazole-3-carboxamide] | < 1
10 | NC(=O)c1nn(CC(=O)N2C[C@H](F)C[C@H]2C(=O)Nc2cccc(-c3ccccc3Cl)c2F)c2ccc(C#Cc3cccnn3)cc12 [Compound 73, 1-(2-((2S,4R)-2-(2′-chloro-2-fluorobiphenyl-3-ylcarbamoyl)-4-fluoropyrrolidin-1-yl)-2-oxoethyl)-5-(pyridazin-3-ylethynyl)-1H-indazole-3-carboxamide] | < 1
11 | NC(=O)c1nn(CC(=O)N2C[C@H](F)C[C@H]2C(=O)Nc2cccc(Br)n2)c2ccc(C#Cc3ccccn3)cc12 [Compound 48, 1-(2-((2S,4R)-2-(6-bromopyridin-2-ylcarbamoyl)-4-fluoropyrrolidin-1-yl)-2-oxoethyl)-5-(pyridin-2-ylethynyl)-1H-indazole-3-carboxamide] | < 1
12 | NC(=O)c1nn(CC(=O)N2C[C@H](F)C[C@H]2C(=O)Nc2cccc(-c3cncnc3)c2F)c2ccc(C#Cc3ncccn3)cc12 [Compound 69, 1-(2-((2S,4R)-4-fluoro-2-(2-fluoro-3-(pyrimidin-5-yl)phenylcarbamoyl)pyrrolidin-1-yl)-2-oxoethyl)-5-(pyrimidin-2-ylethynyl)-1H-indazole-3-carboxamide] | < 1
13 | NC(=O)c1nn(CC(=O)N2C[C@H](F)C[C@H]2C(=O)Nc2cccc(-c3ncccc3Cl)c2F)c2ccc(C#Cc3ncccn3)cc12 [Compound 28, 1-(2-((2S,4R)-2-(3-(3-chloropyridin-2-yl)-2-fluorophenylcarbamoyl)-4-fluoropyrrolidin-1-yl)-2-oxoethyl)-5-(pyrimidin-2-ylethynyl)-1H-indazole-3-carboxamide] | < 1
14 | NC(=O)c1nn(CC(=O)N2C[C@H](F)C[C@H]2C(=O)Nc2cccc(-c3ccccc3Cl)c2F)c2ccc(C#Cc3ncccn3)cc12 [Compound 22, 1-(2-((2S,4R)-2-(2′-chloro-2-fluorobiphenyl-3-ylcarbamoyl)-4-fluoropyrrolidin-1-yl)-2-oxoethyl)-5-(pyrimidin-2-ylethynyl)-1H-indazole-3-carboxamide] | < 1
15 | NC(=O)c1nn(CC(=O)N2C[C@H](F)C[C@H]2C(=O)Nc2cc(C(F)(F)F)cc(Cl)n2)c2ccc(C#Cc3ncc(F)cn3)cc12 [Compound 74, 1-(2-((2S,4R)-2-(6-chloro-4-(trifluoromethyl)pyridin-2-ylcarbamoyl)-4-fluoropyrrolidin-1-yl)-2-oxoethyl)-5-((5-fluoropyrimidin-2-yl)ethynyl)-1H-indazole-3-carboxamide] | < 1
16 | NC(=O)c1nn(CC(=O)N2C[C@H](F)C[C@H]2C(=O)Nc2cccc(OC(F)(F)F)c2F)c2ccc(C#Cc3ncccn3)cc12 [Compound 38, 1-(2-((2S,4R)-4-fluoro-2-(2-fluoro-3-(trifluoromethoxy)phenyl-carbamoyl)pyrrolidin-1-yl)-2-oxoethyl)-5-(pyrimidin-2-ylethynyl)-1H-indazole-3-carboxamide] | < 1
17 | CC(=O)c1cn(CC(=O)N2C[C@H](F)C[C@H]2C(=O)NCc2cccc(Cl)c2F)c2ccc(C#Cc3cncnc3)cc12 [Compound 16, (2S,4R)-1-(2-(3-acetyl-5-(pyrimidin-5-ylethynyl)-1H-indol-1-yl)acetyl)-N-(3-chloro-2-fluorobenzyl)-4-fluoropyrrolidine-2-carboxamide] | < 1
18 | NC(=O)c1nn(CC(=O)N2C[C@H](F)C[C@H]2C(=O)Nc2cccc(-c3cc(F)c(F)cc3Cl)c2F)c2ccc(C#Cc3ncc(F)cn3)cc12 [Compound 63, 1-(2-((2S,4R)-2-(2′-chloro-2,4′,5′-trifluorobiphenyl-3-ylcarbamoyl)-4-fluoropyrrolidin-1-yl)-2-oxoethyl)-5-((5-fluoropyrimidin-2-yl)ethynyl)-1H-indazole-3-carboxamide] | < 1
